# Source: the CheMixHub viscosity set
# ± gives the uncertainty stated by the source.
# Test: xn = mol fraction of the nth substance listed
smiles,measurement,setting,value
CCCCCCO + CCCCCCCC,viscosity,"293.15 K, 100 kPa, x2 = 0.0423",4.68 ± 0.055 mPa·s
same,viscosity,"293.15 K, 100 kPa, x2 = 0.0824",4.117 ± 0.049 mPa·s
same,viscosity,"293.15 K, 100 kPa, x2 = 0.1636",3.198 ± 0.038 mPa·s
same,viscosity,"293.15 K, 100 kPa, x2 = 0.2691",2.319 ± 0.028 mPa·s
same,viscosity,"293.15 K, 100 kPa, x2 = 0.3407",1.877 ± 0.023 mPa·s
same,viscosity,"293.15 K, 100 kPa, x2 = 0.3897",1.634 ± 0.02 mPa·s
same,viscosity,"293.15 K, 100 kPa, x2 = 0.4731",1.303 ± 0.016 mPa·s
same,viscosity,"293.15 K, 100 kPa, x2 = 0.5241",1.148 ± 0.015 mPa·s
same,viscosity,"293.15 K, 100 kPa, x2 = 0.5779",1.011 ± 0.013 mPa·s
same,viscosity,"293.15 K, 100 kPa, x2 = 0.6611",0.851 ± 0.011 mPa·s
same,viscosity,"293.15 K, 100 kPa, x2 = 0.753",0.719 ± 0.01 mPa·s
same,viscosity,"293.15 K, 100 kPa, x2 = 0.8903",0.582 ± 0.008 mPa·s
same,viscosity,"293.15 K, 100 kPa, x2 = 0.9572",0.533 ± 0.008 mPa·s
same,viscosity,"293.15 K, 100 kPa, x2 = 0.9715",0.524 ± 0.008 mPa·s
same,viscosity,"298.15 K, 100 kPa, x2 = 0.0423",4.014 ± 0.047 mPa·s
same,viscosity,"298.15 K, 100 kPa, x2 = 0.0824",3.546 ± 0.042 mPa·s
same,viscosity,"298.15 K, 100 kPa, x2 = 0.1636",2.775 ± 0.033 mPa·s
same,viscosity,"298.15 K, 100 kPa, x2 = 0.2691",2.037 ± 0.025 mPa·s
same,viscosity,"298.15 K, 100 kPa, x2 = 0.3407",1.663 ± 0.02 mPa·s
same,viscosity,"298.15 K, 100 kPa, x2 = 0.3897",1.457 ± 0.018 mPa·s
same,viscosity,"298.15 K, 100 kPa, x2 = 0.4731",1.176 ± 0.015 mPa·s
same,viscosity,"298.15 K, 100 kPa, x2 = 0.5241",1.043 ± 0.013 mPa·s
same,viscosity,"298.15 K, 100 kPa, x2 = 0.5779",0.925 ± 0.012 mPa·s
same,viscosity,"298.15 K, 100 kPa, x2 = 0.6611",0.785 ± 0.011 mPa·s
same,viscosity,"298.15 K, 100 kPa, x2 = 0.753",0.667 ± 0.009 mPa·s
same,viscosity,"298.15 K, 100 kPa, x2 = 0.8903",0.543 ± 0.008 mPa·s
same,viscosity,"298.15 K, 100 kPa, x2 = 0.9572",0.502 ± 0.008 mPa·s
same,viscosity,"298.15 K, 100 kPa, x2 = 0.9715",0.491 ± 0.007 mPa·s
same,viscosity,"298.15 K, 101.33 kPa, x2 = 0.051",4.054 ± 0.025 mPa·s
same,viscosity,"298.15 K, 101.33 kPa, x2 = 0.1118",3.29 ± 0.02 mPa·s
same,viscosity,"298.15 K, 101.33 kPa, x2 = 0.1835",2.593 ± 0.016 mPa·s
same,viscosity,"298.15 K, 101.33 kPa, x2 = 0.3569",1.552 ± 0.01 mPa·s
same,viscosity,"298.15 K, 101.33 kPa, x2 = 0.5094",1.074 ± 0.007 mPa·s
same,viscosity,"298.15 K, 101.33 kPa, x2 = 0.5642",0.955 ± 0.006 mPa·s
same,viscosity,"298.15 K, 101.33 kPa, x2 = 0.6167",0.857 ± 0.006 mPa·s
same,viscosity,"298.15 K, 101.33 kPa, x2 = 0.6701",0.77 ± 0.005 mPa·s
same,viscosity,"298.15 K, 101.33 kPa, x2 = 0.7288",0.686 ± 0.005 mPa·s
same,viscosity,"298.15 K, 101.33 kPa, x2 = 0.8387",0.566 ± 0.004 mPa·s
same,viscosity,"298.15 K, 101.33 kPa, x2 = 0.937",0.511 ± 0.004 mPa·s
same,viscosity,"303.15 K, 100 kPa, x2 = 0.0423",3.464 ± 0.041 mPa·s
same,viscosity,"303.15 K, 100 kPa, x2 = 0.0824",3.072 ± 0.037 mPa·s
same,viscosity,"303.15 K, 100 kPa, x2 = 0.1636",2.423 ± 0.029 mPa·s
same,viscosity,"303.15 K, 100 kPa, x2 = 0.2691",1.8 ± 0.022 mPa·s
same,viscosity,"303.15 K, 100 kPa, x2 = 0.3407",1.482 ± 0.018 mPa·s
same,viscosity,"303.15 K, 100 kPa, x2 = 0.3897",1.306 ± 0.016 mPa·s
same,viscosity,"303.15 K, 100 kPa, x2 = 0.4731",1.065 ± 0.014 mPa·s
same,viscosity,"303.15 K, 100 kPa, x2 = 0.5241",0.95 ± 0.012 mPa·s
same,viscosity,"303.15 K, 100 kPa, x2 = 0.5779",0.848 ± 0.011 mPa·s
same,viscosity,"303.15 K, 100 kPa, x2 = 0.6611",0.725 ± 0.01 mPa·s
same,viscosity,"303.15 K, 100 kPa, x2 = 0.753",0.62 ± 0.009 mPa·s
same,viscosity,"303.15 K, 100 kPa, x2 = 0.8903",0.508 ± 0.008 mPa·s
same,viscosity,"303.15 K, 100 kPa, x2 = 0.9572",0.468 ± 0.007 mPa·s
same,viscosity,"303.15 K, 100 kPa, x2 = 0.9715",0.461 ± 0.007 mPa·s
same,viscosity,"308.15 K, 100 kPa, x2 = 0.0423",3.004 ± 0.036 mPa·s
same,viscosity,"308.15 K, 100 kPa, x2 = 0.0824",2.675 ± 0.032 mPa·s
same,viscosity,"308.15 K, 100 kPa, x2 = 0.1636",2.126 ± 0.026 mPa·s
same,viscosity,"308.15 K, 100 kPa, x2 = 0.2691",1.599 ± 0.02 mPa·s
same,viscosity,"308.15 K, 100 kPa, x2 = 0.3407",1.327 ± 0.017 mPa·s
same,viscosity,"308.15 K, 100 kPa, x2 = 0.3897",1.176 ± 0.015 mPa·s
same,viscosity,"308.15 K, 100 kPa, x2 = 0.4731",0.969 ± 0.013 mPa·s
same,viscosity,"308.15 K, 100 kPa, x2 = 0.5241",0.869 ± 0.011 mPa·s
same,viscosity,"308.15 K, 100 kPa, x2 = 0.5779",0.779 ± 0.01 mPa·s
same,viscosity,"308.15 K, 100 kPa, x2 = 0.6611",0.671 ± 0.009 mPa·s
same,viscosity,"308.15 K, 100 kPa, x2 = 0.753",0.577 ± 0.008 mPa·s
same,viscosity,"308.15 K, 100 kPa, x2 = 0.8903",0.475 ± 0.007 mPa·s
same,viscosity,"308.15 K, 100 kPa, x2 = 0.9572",0.438 ± 0.007 mPa·s
same,viscosity,"308.15 K, 100 kPa, x2 = 0.9715",0.432 ± 0.007 mPa·s
same,viscosity,"313.15 K, 100 kPa, x2 = 0.0423",2.618 ± 0.031 mPa·s
same,viscosity,"313.15 K, 100 kPa, x2 = 0.0824",2.34 ± 0.028 mPa·s
same,viscosity,"313.15 K, 100 kPa, x2 = 0.1636",1.876 ± 0.023 mPa·s
same,viscosity,"313.15 K, 100 kPa, x2 = 0.2691",1.426 ± 0.018 mPa·s
same,viscosity,"313.15 K, 100 kPa, x2 = 0.3407",1.193 ± 0.015 mPa·s
same,viscosity,"313.15 K, 100 kPa, x2 = 0.3897",1.064 ± 0.014 mPa·s
same,viscosity,"313.15 K, 100 kPa, x2 = 0.4731",0.884 ± 0.012 mPa·s
same,viscosity,"313.15 K, 100 kPa, x2 = 0.5241",0.797 ± 0.011 mPa·s
same,viscosity,"313.15 K, 100 kPa, x2 = 0.5779",0.718 ± 0.01 mPa·s
same,viscosity,"313.15 K, 100 kPa, x2 = 0.6611",0.622 ± 0.009 mPa·s
same,viscosity,"313.15 K, 100 kPa, x2 = 0.753",0.537 ± 0.008 mPa·s
same,viscosity,"313.15 K, 100 kPa, x2 = 0.8903",0.445 ± 0.007 mPa·s
same,viscosity,"313.15 K, 100 kPa, x2 = 0.9572",0.411 ± 0.007 mPa·s
same,viscosity,"313.15 K, 100 kPa, x2 = 0.9715",0.406 ± 0.007 mPa·s
O=C1CCCCC1 + CCCCCCCC,viscosity,"298.15 K, 101 kPa, x2 = 0.0833",1.59 ± 0.013 mPa·s
same,viscosity,"298.15 K, 101 kPa, x2 = 0.1727",1.31 ± 0.011 mPa·s
same,viscosity,"298.15 K, 101 kPa, x2 = 0.3177",1.023 ± 0.009 mPa·s
same,viscosity,"298.15 K, 101 kPa, x2 = 0.4682",0.829 ± 0.007 mPa·s
same,viscosity,"298.15 K, 101 kPa, x2 = 0.6244",0.693 ± 0.006 mPa·s
same,viscosity,"298.15 K, 101 kPa, x2 = 0.7825",0.602 ± 0.005 mPa·s
same,viscosity,"298.15 K, 101 kPa, x2 = 0.8935",0.55 ± 0.005 mPa·s
same,viscosity,"298.15 K, 101.33 kPa, x1 = 0.0981",0.537 ± 0.004 mPa·s
same,viscosity,"298.15 K, 101.33 kPa, x1 = 0.2053",0.583 ± 0.004 mPa·s
same,viscosity,"298.15 K, 101.33 kPa, x1 = 0.3022",0.635 ± 0.005 mPa·s
same,viscosity,"298.15 K, 101.33 kPa, x1 = 0.4042",0.706 ± 0.005 mPa·s
same,viscosity,"298.15 K, 101.33 kPa, x1 = 0.5032",0.787 ± 0.006 mPa·s
same,viscosity,"298.15 K, 101.33 kPa, x1 = 0.603",0.895 ± 0.006 mPa·s
same,viscosity,"298.15 K, 101.33 kPa, x1 = 0.7025",1.039 ± 0.007 mPa·s
same,viscosity,"298.15 K, 101.33 kPa, x1 = 0.8021",1.264 ± 0.009 mPa·s
same,viscosity,"298.15 K, 101.33 kPa, x1 = 0.8984",1.508 ± 0.013 mPa·s
same,viscosity,"303.15 K, 101.33 kPa, x1 = 0.0981",0.505 ± 0.004 mPa·s
same,viscosity,"303.15 K, 101.33 kPa, x1 = 0.2053",0.547 ± 0.004 mPa·s
same,viscosity,"303.15 K, 101.33 kPa, x1 = 0.3022",0.595 ± 0.004 mPa·s
same,viscosity,"303.15 K, 101.33 kPa, x1 = 0.4042",0.658 ± 0.005 mPa·s
same,viscosity,"303.15 K, 101.33 kPa, x1 = 0.5032",0.733 ± 0.005 mPa·s
same,viscosity,"303.15 K, 101.33 kPa, x1 = 0.603",0.831 ± 0.006 mPa·s
same,viscosity,"303.15 K, 101.33 kPa, x1 = 0.7025",0.96 ± 0.007 mPa·s
same,viscosity,"303.15 K, 101.33 kPa, x1 = 0.8021",1.165 ± 0.008 mPa·s
same,viscosity,"303.15 K, 101.33 kPa, x1 = 0.8984",1.38 ± 0.009 mPa·s
same,viscosity,"308.15 K, 101.33 kPa, x1 = 0.0981",0.479 ± 0.004 mPa·s
same,viscosity,"308.15 K, 101.33 kPa, x1 = 0.2053",0.516 ± 0.004 mPa·s
same,viscosity,"308.15 K, 101.33 kPa, x1 = 0.3022",0.559 ± 0.004 mPa·s
same,viscosity,"308.15 K, 101.33 kPa, x1 = 0.4042",0.618 ± 0.004 mPa·s
same,viscosity,"308.15 K, 101.33 kPa, x1 = 0.5032",0.686 ± 0.005 mPa·s
same,viscosity,"308.15 K, 101.33 kPa, x1 = 0.603",0.774 ± 0.005 mPa·s
same,viscosity,"308.15 K, 101.33 kPa, x1 = 0.7025",0.894 ± 0.006 mPa·s
same,viscosity,"308.15 K, 101.33 kPa, x1 = 0.8021",1.054 ± 0.007 mPa·s
same,viscosity,"308.15 K, 101.33 kPa, x1 = 0.8984",1.271 ± 0.008 mPa·s
